Data published in patent publication US10065990B2, “Cyclic peptide compound, and preparation method, pharmaceutical composition and use thereof” (HANGZHOU GUANYU BIO-MEDICAL CO., LTD, priority 2013, dated 2018).
Where two headings read alike, the source gives them in different places.

Key:
HDAC7 = biological target: T1, HDAC7 (Homo sapiens, UniProt Q8WUI4); assay: HDAC biochemical activity measurement (fluorescent substrate deacetylation);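 also: fluorogenic deacetylation assay using acetyl-lysine substrate at 20 µM, enzyme and compound incubated 30 min at 37 °C, then developer added, fluorescence read at 360/460 nm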; conditions: HDAC7; 37° C. 30 minutes
T1 sequence (Q8WUI4 1-952): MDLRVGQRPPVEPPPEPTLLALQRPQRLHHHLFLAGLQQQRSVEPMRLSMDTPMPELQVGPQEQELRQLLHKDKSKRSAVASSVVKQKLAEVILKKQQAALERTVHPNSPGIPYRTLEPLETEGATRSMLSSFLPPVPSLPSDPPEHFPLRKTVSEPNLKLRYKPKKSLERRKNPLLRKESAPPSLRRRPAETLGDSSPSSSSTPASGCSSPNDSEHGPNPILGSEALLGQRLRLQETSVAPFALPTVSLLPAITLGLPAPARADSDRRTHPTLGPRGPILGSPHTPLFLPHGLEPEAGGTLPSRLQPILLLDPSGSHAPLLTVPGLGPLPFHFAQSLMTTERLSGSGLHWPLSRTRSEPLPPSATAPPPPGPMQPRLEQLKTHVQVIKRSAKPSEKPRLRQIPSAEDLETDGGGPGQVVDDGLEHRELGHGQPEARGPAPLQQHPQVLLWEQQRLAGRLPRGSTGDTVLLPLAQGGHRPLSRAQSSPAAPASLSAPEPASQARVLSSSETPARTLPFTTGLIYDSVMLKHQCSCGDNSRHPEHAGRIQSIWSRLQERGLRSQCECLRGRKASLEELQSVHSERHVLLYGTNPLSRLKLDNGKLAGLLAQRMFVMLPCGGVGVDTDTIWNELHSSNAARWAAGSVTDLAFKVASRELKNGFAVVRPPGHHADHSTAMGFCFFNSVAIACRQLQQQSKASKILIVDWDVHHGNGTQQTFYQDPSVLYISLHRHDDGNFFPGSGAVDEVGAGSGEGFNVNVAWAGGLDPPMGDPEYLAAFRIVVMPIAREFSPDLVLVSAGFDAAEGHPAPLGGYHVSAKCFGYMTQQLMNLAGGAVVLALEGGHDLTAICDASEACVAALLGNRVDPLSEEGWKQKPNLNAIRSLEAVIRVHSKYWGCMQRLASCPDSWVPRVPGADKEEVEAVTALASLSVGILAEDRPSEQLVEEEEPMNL

[1] = test system: A549 (human lung cancer cells); assay: MTT cancer cell growth inhibition; format: cell-based; conditions: Homo sapiens, A549, 72 h, MTT, 72 hours incubation, read-out: GI50 A54
Method in brief: (§1)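 72 h exposure, final drug 10^−5–10^−10 M, triplicate wells; 1500 cells/well plated the day before; medium DMEM or 1640 + 10% FBS; 37° C./5% CO2. MTT (5 mg/ml stock) 4 h, DMSO solubilisation, A570 → % viability → GI50.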

[2] = test system: BGC-823 (human gastric cancer cells); assay: MTT cancer cell growth inhibition; format: cell-based; conditions: Homo sapiens, BGC-823, 72 h, MTT, 72 hours incubation, read-out: GI50 BG
Method in brief: as §1

[3] = test system: Bel-7402 (human hepatoma cells); assay: MTT cancer cell growth inhibition; format: cell-based; conditions: MTT, 72 hours incubation, Bel-7402 cells, read-out: GI50 Bel-7402
Method in brief: as §1

[4] = test system: DU145 (human prostate cancer cells); assay: MTT cancer cell growth inhibition; format: cell-based; conditions: Homo sapiens, DU-145, 72 h, MTT, 72 hours incubation, read-out: GI50 Du1
Method in brief: as §1

[5] = test system: H1975 (non-small cell lung adenocarcinoma); assay: MTT cancer cell growth inhibition; format: cell-based; conditions: Homo sapiens, NCI-H1975, 72 h, MTT, 72 hours incubation, H1975 cells; read-out: GI50 H1975
Method in brief: as §1

[6] = test system: HCC827 (human non-small cell lung cancer cells); assay: MTT cancer cell growth inhibition; format: cell-based; conditions: Homo sapiens, HCC827, 72 h, MTT, 72 hours incubation, HCC827 cells; read-out: GI50 HCC827
Method in brief: as §1

[7] = test system: HT1080 (human fibrosarcoma cells); assay: MTT cancer cell growth inhibition; format: cell-based; conditions: MTT, 72 hours incubation, read-out: GI50 HT1
Method in brief: as §1

[8] = test system: Hela (human cervical cancer cells); assay: MTT cancer cell growth inhibition; format: cell-based; conditions: MTT, 72 hours incubation, read-out: GI50 Hela
Method in brief: as §1

[9] = test system: Huh-7 (human hepatoma cells); assay: MTT cancer cell growth inhibition; format: cell-based; conditions: Homo sapiens, Huh-7, 72 h, MTT, 72 hours incubation, Huh-7 cells; read-out: GI50 Huh-7
Method in brief: as §1

[10] = test system: K562 (human leukemia cells); assay: MTT cancer cell growth inhibition; format: cell-based; conditions: Homo sapiens, K562, 72 h, MTT, 72 hours incubation, K562 cells; read-out: GI50 K562
Method in brief: as §1

[11] = test system: KBM-5 (human chronic myelogenous leukemia); assay: MTT cancer cell growth inhibition; format: cell-based; conditions: Homo sapiens, KBM5, 72 h, MTT, 72 hours incubation, KBM-5 cells; read-out: GI50 KBM-5
Method in brief: as §1

[12] = test system: KBM5-T315I (human chronic myelogenous leukemia); assay: MTT cancer cell growth inhibition; format: cell-based; conditions: Homo sapiens, 72 h, MTT, 72 hours incubation, KBM5-T315I cells; read-out: GI50 KBM5-T315I
Method in brief: as §1

[13] = test system: MCF-7 (human breast cancer cells); assay: MTT cancer cell growth inhibition; format: cell-based; conditions: 72 hours incubation, read-out: GI50 MCF
Method in brief: as §1

[14] = test system: MDA-MB-231 (breast cancer cells); assay: MTT cancer cell growth inhibition; format: cell-based; conditions: Homo sapiens, MDA-MB-231, 72 h, read-out: GI50 MDA-MB-231, MTT, 72 hours incubation, MDA-MB-231 cells
Method in brief: as §1

[15] = test system: MOLT-4 (human acute lymphoblastic leukemia cells); assay: MTT cancer cell growth inhibition; format: cell-based; conditions: Homo sapiens, MOLT-4, 72 h, MTT, 72 hours incubation, read-out: GI50 Mol
Method in brief: as §1

[16] = test system: N-87 (human gastric cancer cells); assay: MTT cancer cell growth inhibition; format: cell-based; conditions: Homo sapiens, 72 h, MTT, 72 hours incubation, N-87 cells; read-out: GI50 N-87
Method in brief: as §1

[17] = test system: PANC-1 (Pac-1, human pancreatic cancer cells); assay: MTT cancer cell growth inhibition; format: cell-based; conditions: Homo sapiens, PANC-1, 72 h, MTT, 72 hours incubation, read-out: GI50 PAN
Method in brief: as §1

[18] = test system: SGC-7901 (human gastric cancer cells); assay: MTT cancer cell growth inhibition; format: cell-based; conditions: Homo sapiens, SGC-7901, 72 h, MTT, 72 hours incubation, SGC-7901 cells; read-out: GI50 SGC-7901
Method in brief: as §1

[19] = test system: U937 (human leukemia cells); assay: MTT cancer cell growth inhibition; format: cell-based; conditions: MTT, 72 hours incubation, read-out: GI50 U93
Method in brief: as §1

[20] = test system: lncap (prostate cancer cells); assay: MTT cancer cell growth inhibition; format: cell-based; conditions: Homo sapiens, LNCaP, 72 h, MTT, 72 hours incubation, read-out: GI50 lnca
Method in brief: as §1

IC50 HDAC7 (HDAC7)	GI50 [1] [nM]	GI50 [2] [nM]	GI50 ([3]; Homo sapiens, Bel-7402, 72 h) [nM]	GI50 [4] [nM]	GI50 [5] [nM]	GI50 [6] [nM]	GI50 ([7]; Homo sapiens, HT-1080, 72 h) [nM]	GI50 ([8]; Homo sapiens, HeLa, 72 h) [nM]	GI50 [9] [nM]	GI50 [10] [nM]	GI50 [11] [nM]	GI50 [12] [nM]	GI50 ([13]; Homo sapiens, MCF7, 72 h) [nM]	GI50 [14] [nM]	GI50 [15] [nM]	GI50 [16] [nM]	GI50 [17] [nM]	GI50 [18] [nM]	GI50 ([19]; Homo sapiens, U-937, 72 h) [nM]	also measured	Structure (SMILES)
no activity	30	100	79	60	63	21	50	130	42	39	31	33	80	31	50	55	30	44	70	GI50 [20]: 20 nM	C=C1NC(=O)c2nc(ccc2F)CNC(=O)C[C@@H](/C=C/CCS)OC(=O)[C@H](C)NC1=O [Compound 140]
no activity	40	60	67	30	53	67	60	70	38	34	71	58	50	38	30	69	60	45	50	GI50 [20]: 30 nM	C/C=C1\NC(=O)c2ccc(F)c(n2)CNC(=O)C[C@@H](/C=C/CCSC(=O)CCCCCCC)OC(=O)[C@H](C(C)C)NC1=O [Example 32]
no activity	40	70	22	10	35	41	40	80	36	46	9	35	50	58	20	31	80	51	30	GI50 [20]: 30 nM	CC(C)=C1NC(=O)c2nc(ccc2F)CNC(=O)C[C@@H](/C=C/CCS)OC(=O)[C@H](C(C)C)NC1=O [Compound 136]
no activity					41	46			47	25	51	65		49		37		48		GI50 ([1]; A549 cells): 70 nM; GI50 ([2]; BGC-823 cells): 60 nM; GI50 [3]: 25 nM; GI50 ([4]; DU145 cells): 30 nM; GI50 ([7]; HT1080 cells): 50 nM; GI50 ([8]; Hela cells): 110 nM; GI50 ([13]; MCF-7 cells): 40 nM; GI50 ([15]; MOLT-4 cells): 60 nM; GI50 ([17]; PANC-1 cells): 50 nM; GI50 ([19]; U937 cells): 20 nM; GI50 ([20]; lncap cells): 60 nM	C/C=C1\NC(=O)c2nc(ccc2SC)CNC(=O)C[C@@H](/C=C/CCSC(C)=O)OC(=O)[C@H](C)NC1=O [Compound 183]
no activity	30	70	53	50	23	39	70	40	49	73	41	53	50	55	20	35	130	23	50	GI50 [20]: 100 nM	C/C=C1\NC(=O)c2nc(ccc2F)CNC(=O)C[C@@H](/C=C/CCS)OC(=O)[C@H](Cc2ccc(O)cc2)NC1=O [Compound 128]
